The values that follow are results of earlier work, collected in patent publication US20190209552A1, “PHARMACEUTICAL COMPOSITION OF [ (3-HYDROXY-4 -PYRON-2-YL) METHYL] -AMINE DERIVATIVES AND DNA DEMETHYLATING AGENTS AND THEIR USE AS ANTI-NEOPLASTIC DRUGS” (UNIVERSITA' DEGLI STUDI DI URBINO "CARLO BO", priority 2016, published 2019).

Series [1] relates to Ewing's sarcoma.
For series [2], the system named is Ewing's sarcoma. The source holds these as a separate data set.

On to `CN1CCN(Cc2occc(=O)c2O)CCN(C)CCN(Cc2occc(=O)c2O)CC1` [Maltonis, 4(N), 10(N)-bis [(3-hydroxy-4-Pyron-2-yl)methyl]-1,7-dimethyl-1,4,7,10tetraazacyclododecane], for which, in series [1], the efficacy in vitro entry is reported as “effective”. For the same compound, the efficacy in vivo entry in series [2] is recorded as “effective”.
